In patent publication US11109593B2, “Isoxazolin-5-one derivative and herbicide containing same as active ingredient” (HOKKO CHEMICAL INDUSTRY CO., LTD., priority 2017, dated 2021):

What follows are compounds tested on Echinochloa crus-galli (assay: Test Example 1: herbicidal effect test by treatment of rice paddy soil (immediately after seeding)). Conditions: 120 g/10a active ingredient, 14 days after treatment, dry weight vs untreated area.
Format: in vivo
Summary of the method: (§1)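 Application occurs immediately after seeding, with diluted emulsion added to paddy water (about 3 cm deep) over puddled, fertilized soil at 120 g active ingredient per 10 ares. Herbicidal rate is calculated from mean dry weight against untreated controls 14 days later.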

Row | Compound | Herbicidal rate (%) Echinochloa crus-galli [%]
1 | Cc1c(Cc2ccccc2N(S(=O)(=O)C(F)(F)F)S(=O)(=O)C(F)(F)F)c(=O)on1C1CCCc2ccccc21 (centres unmarked) [Compound 1-1050] | 100

Same assay, conditions: 120 g/10a active ingredient, dry weight vs untreated area, 14 days after treatment

Row | Compound | Herbicidal rate (%) Echinochloa crus-galli [%]
2 | CCS(=O)(=O)N(c1ccccc1Cc1c(C)n(CCSC)oc1=O)S(=O)(=O)C(F)(F)F [Compound 1-916] | 90

Each compound was assayed on Scirpus juncoides in the same assay as above. Conditions: 120 g/10a active ingredient, 14 days after treatment, dry weight vs untreated area.
Format: in vivo
Summary of the method: as §1

Row | Compound | Herbicidal rate (%) Scirpus juncoides [%]
3 | Cc1c(Cc2ccccc2N(S(=O)(=O)C(F)(F)F)S(=O)(=O)C(F)(F)F)c(=O)on1C1CCCc2ccccc21 (centres unmarked) [Compound 1-1050] | 90

Same assay, conditions: 120 g/10a active ingredient, dry weight vs untreated area, 14 days after treatment

Row | Compound | Herbicidal rate (%) Scirpus juncoides [%]
4 | CCS(=O)(=O)N(c1ccccc1Cc1c(C)n(CCSC)oc1=O)S(=O)(=O)C(F)(F)F [Compound 1-916] | 90

What follows are compounds tested on broad leaf weeds (Lindernia pyxidaria and Monochoria vaginalis) in the same assay as above. Conditions: Lindernia pyxidaria, 120 g/10a active ingredient, 14 days after treatment, dry weight vs untreated area.
Format: in vivo
Summary of the method: as §1

Row | Compound | Herbicidal rate (%) Lindernia pyxidaria [%]
5 | Cc1c(Cc2ccccc2N(S(=O)(=O)C(F)(F)F)S(=O)(=O)C(F)(F)F)c(=O)on1C1CCCc2ccccc21 (centres unmarked) [Compound 1-1050] | 100

Same assay, conditions: Lindernia pyxidaria, 120 g/10a active ingredient, dry weight vs untreated area, 14 days after treatment

Row | Compound | Herbicidal rate (%) Lindernia pyxidaria [%]
6 | CCS(=O)(=O)N(c1ccccc1Cc1c(C)n(CCSC)oc1=O)S(=O)(=O)C(F)(F)F [Compound 1-916] | 90

Same assay, conditions: Monochoria vaginalis, 120 g/10a active ingredient, 14 days after treatment, dry weight vs untreated area

Row | Compound | Herbicidal rate (%) Monochoria vaginalis [%]
7 | Cc1c(Cc2ccccc2N(S(=O)(=O)C(F)(F)F)S(=O)(=O)C(F)(F)F)c(=O)on1C1CCCc2ccccc21 (centres unmarked) [Compound 1-1050] | 100

Same assay, conditions: Monochoria vaginalis, 120 g/10a active ingredient, dry weight vs untreated area, 14 days after treatment

Row | Compound | Herbicidal rate (%) Monochoria vaginalis [%]
8 | CCS(=O)(=O)N(c1ccccc1Cc1c(C)n(CCSC)oc1=O)S(=O)(=O)C(F)(F)F [Compound 1-916] | 90

Each compound was assayed on Echinochloa crus-galli (assay: Test Example 2: herbicidal effect test by treatment during growing period in paddy rice cultivation (seven days after seeding)). Conditions: 120 g/10a active ingredient, assessed 14 days after treatment, dry weight vs untreated area.
Format: in vivo
Summary of the method: (§2)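 Seeds sown 0–1 cm deep in puddled, fertilised paddy soil with about 3 cm standing water in a glass greenhouse. Diluted emulsion dropped into the water seven days after seeding at 120 g active ingredient per 10 ares. Herbicidal rate (%) from mean dry weight vs untreated, duplicate, 14 days after treatment.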

Row | Compound | Herbicidal rate (%) Echinochloa crus-galli [%]
9 | CCS(=O)(=O)N(c1ccccc1Cc1c(C)n(CCSC)oc1=O)S(=O)(=O)C(F)(F)F [Compound 1-916] | 90
10 | Cc1c(Cc2ccccc2N(S(=O)(=O)C(F)(F)F)S(=O)(=O)C(F)(F)F)c(=O)on1C1CCCc2ccccc21 (centres unmarked) [Compound 1-1050] | 90

These compounds were tested on Scirpus juncoides in the same assay as above. Conditions: 120 g/10a active ingredient, assessed 14 days after treatment, dry weight vs untreated area.
Format: in vivo
Summary of the method: as §2

Row | Compound | Herbicidal rate (%) Scirpus juncoides [%]
11 | CCS(=O)(=O)N(c1ccccc1Cc1c(C)n(CCSC)oc1=O)S(=O)(=O)C(F)(F)F [Compound 1-916] | 90
12 | Cc1c(Cc2ccccc2N(S(=O)(=O)C(F)(F)F)S(=O)(=O)C(F)(F)F)c(=O)on1C1CCCc2ccccc21 (centres unmarked) [Compound 1-1050] | 90

What follows are compounds tested on broad leaf weeds (Lindernia pyxidaria and Monochoria vaginalis) in the same assay as above. Conditions: Lindernia pyxidaria, 120 g/10a active ingredient, assessed 14 days after treatment, dry weight vs untreated area.
Format: in vivo
Summary of the method: as §2

Row | Compound | Herbicidal rate (%) Lindernia pyxidaria [%]
13 | CCS(=O)(=O)N(c1ccccc1Cc1c(C)n(CCSC)oc1=O)S(=O)(=O)C(F)(F)F [Compound 1-916] | 90
14 | Cc1c(Cc2ccccc2N(S(=O)(=O)C(F)(F)F)S(=O)(=O)C(F)(F)F)c(=O)on1C1CCCc2ccccc21 (centres unmarked) [Compound 1-1050] | 100

Same assay, conditions: Monochoria vaginalis, 120 g/10a active ingredient, assessed 14 days after treatment, dry weight vs untreated area

Row | Compound | Herbicidal rate (%) Monochoria vaginalis [%]
15 | CCS(=O)(=O)N(c1ccccc1Cc1c(C)n(CCSC)oc1=O)S(=O)(=O)C(F)(F)F [Compound 1-916] | 90
16 | Cc1c(Cc2ccccc2N(S(=O)(=O)C(F)(F)F)S(=O)(=O)C(F)(F)F)c(=O)on1C1CCCc2ccccc21 (centres unmarked) [Compound 1-1050] | 90

Each compound was assayed on Amaranthus viridis (assay: Test Example 3: herbicidal effect test by treatment of dry field farming soil (one day after seeding)). Conditions: 120 g/10a active ingredient, evaluated 14 days after treatment.
Format: in vivo
Summary of the method: (§3)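 Alluvial dry-field soil in pots, top 1 cm mixed with 20 seeds per weed species. One day after seeding, the water-diluted emulsion was sprayed onto the soil surface at 100 L per 10 ares (120 g active ingredient per 10 ares). Duplicate pots; herbicidal rate (%) from plant dry weight versus untreated, 14 days after treatment.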

Row | Compound | herbicidal rate, Amaranthus viridis [%]
17 | CCS(=O)(=O)N(c1ccccc1Cc1c(C)n(CCSC)oc1=O)S(=O)(=O)C(F)(F)F [Compound 1-916] | 90
18 | Cc1c(Cc2ccccc2N(S(=O)(=O)C(F)(F)F)S(=O)(=O)C(F)(F)F)c(=O)on1C1CCCc2ccccc21 (centres unmarked) [Compound 1-1050] | 90

Each compound was assayed on Chenopodium album in the same assay as above. Conditions: 120 g/10a active ingredient, evaluated 14 days after treatment.
Format: in vivo
Summary of the method: as §3

Row | Compound | herbicidal rate, Chenopodium album [%]
19 | CCS(=O)(=O)N(c1ccccc1Cc1c(C)n(CCSC)oc1=O)S(=O)(=O)C(F)(F)F [Compound 1-916] | 90
20 | Cc1c(Cc2ccccc2N(S(=O)(=O)C(F)(F)F)S(=O)(=O)C(F)(F)F)c(=O)on1C1CCCc2ccccc21 (centres unmarked) [Compound 1-1050] | 90

These compounds were tested on Echinochloa crus-galli in the same assay as above. Conditions: 120 g/10a active ingredient, evaluated 14 days after treatment.
Format: in vivo
Summary of the method: as §3

Row | Compound | herbicidal rate, Echinochloa crus-galli [%]
21 | CCS(=O)(=O)N(c1ccccc1Cc1c(C)n(CCSC)oc1=O)S(=O)(=O)C(F)(F)F [Compound 1-916] | 90
22 | Cc1c(Cc2ccccc2N(S(=O)(=O)C(F)(F)F)S(=O)(=O)C(F)(F)F)c(=O)on1C1CCCc2ccccc21 (centres unmarked) [Compound 1-1050] | 100

These compounds were tested on southern crabgrass in the same assay as above. Conditions: 120 g/10a active ingredient, evaluated 14 days after treatment.
Format: in vivo
Summary of the method: as §3

Row | Compound | herbicidal rate, southern crabgrass [%]
23 | CCS(=O)(=O)N(c1ccccc1Cc1c(C)n(CCSC)oc1=O)S(=O)(=O)C(F)(F)F [Compound 1-916] | 90
24 | Cc1c(Cc2ccccc2N(S(=O)(=O)C(F)(F)F)S(=O)(=O)C(F)(F)F)c(=O)on1C1CCCc2ccccc21 (centres unmarked) [Compound 1-1050] | 90

The compounds below were run on Amaranthus viridis (assay: Test Example 4: herbicidal effect test by treatment of leave and stem in dry field farming (seven days after seeding)). Conditions: 120 g/10a active ingredient; emulsion sprayed seven days after seeding; evaluated 14 days after treatment.
Format: in vivo
Summary of the method: (§4)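 Weeds were seeded at 20 seeds per species into the top 1 cm of alluvial upland soil in pots, then sprayed 7 days after seeding with water-diluted emulsifiable concentrate at 100 L/10 a, giving 120 g active ingredient/10 a. Duplicate pots; herbicidal rate (%) was 14 days post-treatment, from dry weight versus untreated.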

Row | Compound | herbicidal effect (herbicidal rate), Amaranthus viridis [%]
25 | CCS(=O)(=O)N(c1ccccc1Cc1c(C)n(CCSC)oc1=O)S(=O)(=O)C(F)(F)F [Compound 1-916] | 40
26 | Cc1c(Cc2ccccc2N(S(=O)(=O)C(F)(F)F)S(=O)(=O)C(F)(F)F)c(=O)on1C1CCCc2ccccc21 (centres unmarked) [Compound 1-1050] | 40

What follows are compounds tested on Chenopodium album in the same assay as above. Conditions: 120 g/10a active ingredient; emulsion sprayed seven days after seeding; evaluated 14 days after treatment.
Format: in vivo
Summary of the method: as §4

Row | Compound | herbicidal effect (herbicidal rate), Chenopodium album [%]
27 | CCS(=O)(=O)N(c1ccccc1Cc1c(C)n(CCSC)oc1=O)S(=O)(=O)C(F)(F)F [Compound 1-916] | 40
28 | Cc1c(Cc2ccccc2N(S(=O)(=O)C(F)(F)F)S(=O)(=O)C(F)(F)F)c(=O)on1C1CCCc2ccccc21 (centres unmarked) [Compound 1-1050] | 50

These compounds were tested on Echinochloa crus-galli in the same assay as above. Conditions: 120 g/10a active ingredient; emulsion sprayed seven days after seeding; evaluated 14 days after treatment.
Format: in vivo
Summary of the method: as §4

Row | Compound | herbicidal effect (herbicidal rate), Echinochloa crus-galli [%]
29 | CCS(=O)(=O)N(c1ccccc1Cc1c(C)n(CCSC)oc1=O)S(=O)(=O)C(F)(F)F [Compound 1-916] | 90
30 | Cc1c(Cc2ccccc2N(S(=O)(=O)C(F)(F)F)S(=O)(=O)C(F)(F)F)c(=O)on1C1CCCc2ccccc21 (centres unmarked) [Compound 1-1050] | 50

These compounds were tested on southern crabgrass in the same assay as above. Conditions: 120 g/10a active ingredient; emulsion sprayed seven days after seeding; evaluated 14 days after treatment.
Format: in vivo
Summary of the method: as §4

Row | Compound | herbicidal effect (herbicidal rate), southern crabgrass [%]
31 | CCS(=O)(=O)N(c1ccccc1Cc1c(C)n(CCSC)oc1=O)S(=O)(=O)C(F)(F)F [Compound 1-916] | 90
32 | Cc1c(Cc2ccccc2N(S(=O)(=O)C(F)(F)F)S(=O)(=O)C(F)(F)F)c(=O)on1C1CCCc2ccccc21 (centres unmarked) [Compound 1-1050] | 40
